The text below walks through data of US20110301209A1, “METHODS AND COMPOSITIONS FOR THE TREATMENT OF CANCER, TUMORS, AND TUMOR-RELATED DISORDERS” (TRAGARA PHARMACEUTICALS, INC., priority 2007, published 2011).

One series has as its system H460 NSCLC. The experiment in a line: H460 NSCLC xenograft, tumor growth delay. In kind it is in vivo, female athymic nude mice. An excerpt: (§1) The models evaluated included MV522, A549 and H460 NSCLC. […] The experiments used a tumor growth delay (TGD) endpoint based on median time to endpoint, i.e., tumor volume of 1000-2000 mm^3, and treatments were compared to untreated controls using the Logrank test for statistical significance.

For series [1] the following is noted: cited from earlier work.
The conditions of series [2]: patients taking erlotinib; cited from earlier work.
A short description of series [3]: Oral pharmacokinetics, all species examined. The class given is in vivo. The settings on record: orally administered; mice, rats, dogs, and monkeys. The protocol: Peak plasma concentrations were achieved between 1 and 3 hours after a dose of 5 mg/kg. […] Oral availability was greatest in rodent, and was reduced in dogs and monkeys (59 and 34% respectively).
The nature of the next series: in vivo. The note with it: female, athymic nude, mouse, in vivo, po.
Excerpt: as §1

The test system of the next series is MV522 NSCLC. In words: in vivo. The note with it: MV522.
Excerpt: as §1

The subject of another series is A549 NSCLC. The experiment in a line: A549 NSCLC xenograft, tumor growth delay. In kind it is in vivo, female athymic nude mice.
Excerpt: as §1

Turning to `CC(=O)O[C@@]12CO[C@@H]1C[C@H](O)[C@@]1(C)C(=O)[C@H](O)C3=C(C)[C@@H](OC(=O)[C@H](O)[C@@H](NC(=O)OC(C)(C)C)c4ccccc4)C[C@@](O)([C@@H](OC(=O)c4ccccc4)[C@H]21)C3(C)C` [Docetaxel], in the series with H460 NSCLC (25 mg/kg iv weekly x3), the “Tumor growth delay (TGD)” value was 10.8 days and the “Tumor growth delay (TGD), percent” value was found to be 80%. In addition, the Solubility in water result in series [1] is “practically insoluble”.
Regarding `C#Cc1cccc(Nc2ncnc3cc(OCCOC)c(OCCOC)cc23)c1` [erlotinib, N-(3-ethynylphenyl)-6,7-bis(2-methoxyethoxy)quinazolin-4-amine], in series [2], the “Patients with common side effects (rash, diarrhea, poor appetite, fatigue, shortness of breath, cough, nausea and vomiting)” value is recorded as “greater than 30 % of patients”.
With `CCOc1ccc(-c2cc(C)cn2-c2ccc(S(N)(=O)=O)cc2)cc1`, the “Absorption after oral administration” value in series [3] was “rapidly absorbed”. The same molecule displayed an MTD in “in vivo” of 30 mg/kg. For the same molecule, the “Tumor growth delay (TGD)” value worked out at 19.1 days with MV522 NSCLC (10 mg/kg oral daily); 32.1 days in the series on MV522 NSCLC (30 mg/kg (MTD) oral daily); 24.3 days in the series with A549 NSCLC (at its MTD, oral daily); 4.0 days in the series on H460 NSCLC (COX-2 inhibitor monotherapy). For the same molecule, the “Tumor growth delay (TGD), percent” value was 57% in the series with MV522 NSCLC (10 mg/kg oral daily); 96% with MV522 NSCLC (30 mg/kg (MTD) oral daily); 62% in the series on A549 NSCLC (at its MTD, oral daily); 30% with H460 NSCLC (COX-2 inhibitor monotherapy).
`Cc1ccc(-c2cc(C(F)(F)F)nn2-c2ccc(S(N)(=O)=O)cc2)cc1` [celecoxib, reference compound]: the “Tumor growth delay (TGD)” value in the series on A549 NSCLC (100 mg/kg) stood at 15.4 days; in the series with H460 NSCLC (COX-2 inhibitor monotherapy), 3.0 days. For the same molecule, the figures for the “Tumor growth delay (TGD), percent” value in the series on A549 NSCLC (100 mg/kg) and in the series on H460 NSCLC (COX-2 inhibitor monotherapy) were 39% and 22%, respectively.
